For test [1], the system named is acute paranoid schizophrenia. The conditions noted are these: after 2 weeks; cited from earlier work.
The subject of test [2] is human patient having a remote head injury, s/p 4 craniotomies and intractable seizures. Nature of the test: Example 7: topical cannabidiol 40 mg at the BONATH, intractable seizures, EEG. It is filed as in vivo. The conditions noted are these: 25 mg milnacipran topical nuchal after cannabidiol 40 mg. Here is the method: The efficacy of a topical cannabidiol formulation was studied in a human patient having a remote head injury, s/p 4 craniotomies and intractable seizures. The patient was treated with cannabidiol 40 mg applied to the BONATH in a topical formulation. There was attenuation of associated focal EEG abnormalities.

Structures are written as SMILES.

`CCN1CCCC1CNC(=O)c1cc(S(=O)(=O)CC)c(N)cc1OC` (centres unmarked) [amisulpride]: the psychotic symptoms entry in test [1] is recorded as “significant decrease in psychotic symptoms”.
With `CCN(CC)C(=O)C1(c2ccccc2)CC1CN` (centres unmarked) [milnacipran], in test [2], the “EEG after further topical nuchal treatment” value was “further attenuated”.

Values taken from patent US10632064B2, “Topical regional neuro affective therapy with cannabinoid combination products” (Afgin Pharma, LLC, priority 2015, dated 2020).
